4 molecules from ChEMBL document CHEMBL3813616, “Discovery of novel 7-azaindoles as PDK1 inhibitors” (Bioorg Med Chem Lett, 2016) can be followed below.

Series [1] deals with T1, 3-phosphoinositide-dependent protein kinase 1 (Homo sapiens) (UniProt O15530).
T1 sequence (whole entry): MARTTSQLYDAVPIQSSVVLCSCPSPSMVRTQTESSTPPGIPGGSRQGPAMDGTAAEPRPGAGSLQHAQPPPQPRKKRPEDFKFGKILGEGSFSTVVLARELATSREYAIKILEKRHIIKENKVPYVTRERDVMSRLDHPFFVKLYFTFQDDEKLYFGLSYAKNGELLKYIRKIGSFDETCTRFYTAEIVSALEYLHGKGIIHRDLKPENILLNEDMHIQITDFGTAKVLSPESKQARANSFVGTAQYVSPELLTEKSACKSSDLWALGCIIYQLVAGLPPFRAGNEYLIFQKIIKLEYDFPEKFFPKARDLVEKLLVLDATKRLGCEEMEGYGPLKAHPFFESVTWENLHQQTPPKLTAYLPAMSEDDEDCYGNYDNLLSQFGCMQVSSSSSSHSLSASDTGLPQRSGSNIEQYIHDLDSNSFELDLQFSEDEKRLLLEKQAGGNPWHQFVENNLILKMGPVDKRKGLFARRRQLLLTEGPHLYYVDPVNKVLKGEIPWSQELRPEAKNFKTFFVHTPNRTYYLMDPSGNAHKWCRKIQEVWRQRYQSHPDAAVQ
Briefly: Selectivity ratio of IC50 for PDK1-mediated AKT phosphorylation at Thr308 in human PC3 cells to IC50 for human His6-tagged PDK1. It counts as cell-based. The note with it: PC-3.

Series [2] is filed under the species Homo sapiens. Briefly: Selectivity ratio of IC50 for PI3K alpha (unknown origin) to IC50 for human His6-tagged PDK1.
Series [3] in a line: Solubility of the compound. It counts as physicochemical.
In series [4] the target is Phosphatidylinositol 4,5-bisphosphate 3-kinase catalytic subunit delta isoform (Homo sapiens) (UniProt O00329). In words: Inhibition of PI3K delta (unknown origin) at 10 uM.
The target in series [5] is Phosphatidylinositol 4,5-bisphosphate 3-kinase catalytic subunit alpha isoform (Homo sapiens, UniProt P42336). Briefly: Inhibition of PI3K alpha (unknown origin) at 10 uM.
The target of series [6] is Tyrosine-protein kinase JAK2 (Homo sapiens) (UniProt O60674). Briefly: Inhibition of JAK2 (unknown origin) assessed as enzyme activity at 1 uM using 33P ATP by radioactive filter binding assay. Also on record: scale not given: the % may be the effect or the level left.
Chain of Tyrosine-protein kinase JAK2 (Homo sapiens) (O60674 whole entry, the tested form may be a part): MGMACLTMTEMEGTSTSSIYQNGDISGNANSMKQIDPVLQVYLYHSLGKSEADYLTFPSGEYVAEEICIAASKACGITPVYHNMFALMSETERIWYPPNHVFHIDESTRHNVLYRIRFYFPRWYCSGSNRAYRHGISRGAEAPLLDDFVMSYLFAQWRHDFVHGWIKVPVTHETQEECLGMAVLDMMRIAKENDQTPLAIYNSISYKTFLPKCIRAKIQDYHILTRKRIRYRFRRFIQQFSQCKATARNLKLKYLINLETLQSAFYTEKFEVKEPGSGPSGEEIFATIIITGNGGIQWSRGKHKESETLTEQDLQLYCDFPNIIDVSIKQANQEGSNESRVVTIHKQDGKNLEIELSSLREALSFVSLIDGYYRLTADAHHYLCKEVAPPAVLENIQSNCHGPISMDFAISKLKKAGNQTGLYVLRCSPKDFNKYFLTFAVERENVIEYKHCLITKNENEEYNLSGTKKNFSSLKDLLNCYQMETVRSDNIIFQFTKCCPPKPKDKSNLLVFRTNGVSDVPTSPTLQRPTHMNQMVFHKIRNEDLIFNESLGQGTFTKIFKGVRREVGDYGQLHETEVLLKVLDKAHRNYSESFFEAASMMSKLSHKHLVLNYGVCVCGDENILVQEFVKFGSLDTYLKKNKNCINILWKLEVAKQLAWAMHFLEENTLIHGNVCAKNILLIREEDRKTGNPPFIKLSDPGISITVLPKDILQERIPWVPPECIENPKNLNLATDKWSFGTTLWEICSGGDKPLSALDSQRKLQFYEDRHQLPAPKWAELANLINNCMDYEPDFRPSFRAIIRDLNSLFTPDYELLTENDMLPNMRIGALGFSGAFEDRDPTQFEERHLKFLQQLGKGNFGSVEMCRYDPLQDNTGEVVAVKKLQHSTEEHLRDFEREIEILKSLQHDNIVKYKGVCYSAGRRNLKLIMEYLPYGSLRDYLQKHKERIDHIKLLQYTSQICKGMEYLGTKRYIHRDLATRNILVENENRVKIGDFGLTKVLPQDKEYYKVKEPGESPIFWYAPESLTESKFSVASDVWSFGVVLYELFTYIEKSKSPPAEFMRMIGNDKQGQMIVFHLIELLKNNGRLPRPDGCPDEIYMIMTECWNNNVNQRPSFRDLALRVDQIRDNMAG
Series [7] has as its target Receptor-interacting serine/threonine-protein kinase 2 (Homo sapiens) (UniProt O43353). Briefly: Inhibition of human RIPK2 (2 to 311 residues) assessed as enzyme activity at 1 uM using 33P ATP by radioactive filter binding assay. The arrangement: scale not given: the % may be the effect or the level left.
In series [8] the target is Serine/threonine-protein kinase 16 (Homo sapiens) (UniProt O75716). In words: Inhibition of human MPSK1 (1 to 305 residues) assessed as enzyme activity at 1 uM using 33P ATP by radioactive filter binding assay. Also on record: scale not given: the % may be the effect or the level left.
Chain of Serine/threonine-protein kinase 16 (Homo sapiens) (O75716 whole entry, the tested form may be a part): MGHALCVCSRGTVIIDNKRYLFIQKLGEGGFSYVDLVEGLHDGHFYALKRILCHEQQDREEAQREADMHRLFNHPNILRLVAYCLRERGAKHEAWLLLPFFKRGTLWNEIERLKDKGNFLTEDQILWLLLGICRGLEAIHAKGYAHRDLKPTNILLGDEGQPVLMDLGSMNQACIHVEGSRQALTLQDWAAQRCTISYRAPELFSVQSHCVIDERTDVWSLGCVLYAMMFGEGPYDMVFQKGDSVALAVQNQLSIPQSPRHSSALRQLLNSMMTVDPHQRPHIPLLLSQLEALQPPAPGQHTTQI
Series [9] has as its target Serine/threonine-protein kinase tousled-like 1 (Homo sapiens) (UniProt Q9UKI8). In words: Inhibition of human TLK1 (1 to 766 residues) assessed as enzyme activity at 1 uM using 33P ATP by radioactive filter binding assay. Also on record: scale not given: the % may be the effect or the level left.
Series [10] deals with Dual specificity protein kinase CLK2 (Homo sapiens) (UniProt P49760). Briefly: Inhibition of human CLK2 (138 to 499 residues) assessed as enzyme activity at 1 uM using 33P ATP by radioactive filter binding assay. The arrangement: scale not given: the % may be the effect or the level left.
Series [11] has as its target Ribosomal protein S6 kinase alpha-1 (Homo sapiens) (UniProt Q15418). In words: Inhibition of human RSK1 (1 to 735 residues) assessed as enzyme activity at 1 uM using 33P ATP by radioactive filter binding assay. Also on record: scale not given: the % may be the effect or the level left.
For series [12], the target named is Tyrosine-protein kinase ZAP-70 (Homo sapiens) (UniProt P43403). Briefly: Inhibition of human ZAP70 (1 to 619 residues) assessed as enzyme activity at 1 uM using 33P ATP by radioactive filter binding assay. Also on record: scale not given: the % may be the effect or the level left.
The target in series [13] is High affinity nerve growth factor receptor (Homo sapiens) (UniProt P04629). Briefly: Inhibition of human TrkA (441 to 760 residues) assessed as enzyme activity at 1 uM using 33P ATP by radioactive filter binding assay. The arrangement: scale not given: the % may be the effect or the level left.
For series [14], the target named is Serine/threonine-protein kinase STK11 (Homo sapiens) (UniProt Q15831). In words: Inhibition of human LKB1 (1 to 433 residues) assessed as enzyme activity at 1 uM using 33P ATP by radioactive filter binding assay. The arrangement: scale not given: the % may be the effect or the level left.
Series [15] addresses Tyrosine-protein kinase ABL1 (Homo sapiens) (UniProt P00519). In words: Inhibition of human ABL (118 to 535 residues) assessed as enzyme activity at 1 uM using 33P ATP by radioactive filter binding assay. Also on record: scale not given: the % may be the effect or the level left.
The target in series [16] is Interleukin-1 receptor-associated kinase 4 (Homo sapiens) (UniProt Q9NWZ3). Briefly: Inhibition of human IRAK4 (14 to 460 residues) assessed as enzyme activity at 1 uM using 33P ATP by radioactive filter binding assay. The arrangement: scale not given: the % may be the effect or the level left.
The target in series [17] is MAP/microtubule affinity-regulating kinase 4 (Homo sapiens) (UniProt Q96L34). Briefly: Inhibition of human MARK4 (2 to 752 residues) assessed as enzyme activity at 1 uM using 33P ATP by radioactive filter binding assay. Also on record: scale not given: the % may be the effect or the level left.
For series [18], the target named is Dual specificity mitogen-activated protein kinase kinase 2 (Homo sapiens) (UniProt P36507). Briefly: Inhibition of human MKK2 (2 to 400 residues) assessed as enzyme activity at 1 uM using 33P ATP by radioactive filter binding assay. Also on record: scale not given: the % may be the effect or the level left.
Chain of Dual specificity mitogen-activated protein kinase kinase 2 (Homo sapiens) (P36507 whole entry, the tested form may be a part): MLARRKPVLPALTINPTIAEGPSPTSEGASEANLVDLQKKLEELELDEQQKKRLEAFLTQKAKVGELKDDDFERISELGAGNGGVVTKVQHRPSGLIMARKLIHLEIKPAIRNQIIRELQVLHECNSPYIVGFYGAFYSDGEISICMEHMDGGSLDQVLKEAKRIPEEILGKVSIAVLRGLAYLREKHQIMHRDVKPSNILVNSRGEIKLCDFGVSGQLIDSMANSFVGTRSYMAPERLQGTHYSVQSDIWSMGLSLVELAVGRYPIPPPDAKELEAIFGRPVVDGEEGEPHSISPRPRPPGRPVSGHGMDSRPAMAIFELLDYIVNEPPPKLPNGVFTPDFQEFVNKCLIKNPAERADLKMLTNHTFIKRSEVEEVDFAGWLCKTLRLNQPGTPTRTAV
Series [19] addresses Mitogen-activated protein kinase kinase kinase kinase 2 (Homo sapiens) (UniProt Q12851). In words: Inhibition of human GCK (2 to 812 residues) assessed as enzyme activity at 1 uM using 33P ATP by radioactive filter binding assay. The arrangement: scale not given: the % may be the effect or the level left.
For series [20], the target named is Mitogen-activated protein kinase kinase kinase 7 (Homo sapiens) (UniProt O43318). Briefly: Inhibition of human TAB1 fused TAK1 (1 to 303 residues) assessed as enzyme activity at 1 uM using 33P ATP by radioactive filter binding assay. The arrangement: scale not given: the % may be the effect or the level left.
For series [21], the target named is Mitogen-activated protein kinase kinase kinase 5 (Homo sapiens) (UniProt Q99683). Briefly: Inhibition of human ASK1 (670 to 950 residues) assessed as enzyme activity at 1 uM using 33P ATP by radioactive filter binding assay. Also on record: scale not given: the % may be the effect or the level left.
Series [22] has as its target Serine/threonine-protein kinase MARK2 (Homo sapiens) (UniProt Q7KZI7). In words: Inhibition of human MARK2 (2 to 691 residues) assessed as enzyme activity at 1 uM using 33P ATP by radioactive filter binding assay. Also on record: scale not given: the % may be the effect or the level left.
Series [23] has as its target Homeodomain-interacting protein kinase 1 (Homo sapiens) (UniProt Q86Z02). Briefly: Inhibition of human HIPK1 (158 to 555 residues) assessed as enzyme activity at 1 uM using 33P ATP by radioactive filter binding assay. The arrangement: scale not given: the % may be the effect or the level left.
The target of series [24] is Casein kinase II subunit alpha (Homo sapiens) (UniProt P68400). Briefly: Inhibition of human CK2alpha (2 to 391 residues) assessed as enzyme activity at 1 uM using 33P ATP by radioactive filter binding assay. Also on record: scale not given: the % may be the effect or the level left.
The target of series [25] is Mitogen-activated protein kinase 9 (Homo sapiens) (UniProt P45984). In words: Inhibition of human JNK2 (1 to 424 residues) assessed as enzyme activity at 1 uM using 33P ATP by radioactive filter binding assay. The arrangement: scale not given: the % may be the effect or the level left.
Chain of Mitogen-activated protein kinase 9 (Homo sapiens) (P45984 whole entry, looked up, the tested form may be a part): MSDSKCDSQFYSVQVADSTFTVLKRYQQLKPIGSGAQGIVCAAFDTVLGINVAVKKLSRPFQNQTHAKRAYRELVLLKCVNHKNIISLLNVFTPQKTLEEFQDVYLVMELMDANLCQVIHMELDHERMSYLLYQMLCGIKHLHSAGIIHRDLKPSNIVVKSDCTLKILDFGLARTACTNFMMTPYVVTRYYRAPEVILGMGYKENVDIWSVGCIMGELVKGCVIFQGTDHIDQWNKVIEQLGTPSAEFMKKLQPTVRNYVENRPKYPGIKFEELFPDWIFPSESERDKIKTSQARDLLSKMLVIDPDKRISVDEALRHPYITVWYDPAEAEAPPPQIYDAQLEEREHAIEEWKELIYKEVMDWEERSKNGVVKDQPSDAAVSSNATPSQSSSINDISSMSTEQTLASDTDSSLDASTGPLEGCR

Chain of Ribosomal protein S6 kinase alpha-1 (Homo sapiens) (Q15418 whole entry, the tested form may be a part): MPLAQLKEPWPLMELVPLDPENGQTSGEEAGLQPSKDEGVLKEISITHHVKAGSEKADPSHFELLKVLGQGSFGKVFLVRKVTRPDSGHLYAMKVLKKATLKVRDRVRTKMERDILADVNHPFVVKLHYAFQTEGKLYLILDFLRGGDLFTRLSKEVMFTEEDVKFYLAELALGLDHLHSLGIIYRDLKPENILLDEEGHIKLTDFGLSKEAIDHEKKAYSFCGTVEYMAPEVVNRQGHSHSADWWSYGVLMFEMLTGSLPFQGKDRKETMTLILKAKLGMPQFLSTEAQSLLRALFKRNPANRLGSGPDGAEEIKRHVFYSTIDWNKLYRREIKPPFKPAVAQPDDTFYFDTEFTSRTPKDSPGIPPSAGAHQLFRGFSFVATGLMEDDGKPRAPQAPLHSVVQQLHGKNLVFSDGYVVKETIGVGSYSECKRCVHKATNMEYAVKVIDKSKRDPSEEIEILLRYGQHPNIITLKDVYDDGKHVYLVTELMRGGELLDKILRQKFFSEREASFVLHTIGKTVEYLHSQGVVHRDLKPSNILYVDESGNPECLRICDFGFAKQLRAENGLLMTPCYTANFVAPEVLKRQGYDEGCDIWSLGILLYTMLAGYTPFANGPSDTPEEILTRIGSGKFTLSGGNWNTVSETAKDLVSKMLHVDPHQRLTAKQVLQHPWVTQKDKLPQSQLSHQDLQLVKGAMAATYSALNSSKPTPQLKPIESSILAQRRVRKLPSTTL
Chain of Serine/threonine-protein kinase tousled-like 1 (Homo sapiens) (Q9UKI8 whole entry, the tested form may be a part): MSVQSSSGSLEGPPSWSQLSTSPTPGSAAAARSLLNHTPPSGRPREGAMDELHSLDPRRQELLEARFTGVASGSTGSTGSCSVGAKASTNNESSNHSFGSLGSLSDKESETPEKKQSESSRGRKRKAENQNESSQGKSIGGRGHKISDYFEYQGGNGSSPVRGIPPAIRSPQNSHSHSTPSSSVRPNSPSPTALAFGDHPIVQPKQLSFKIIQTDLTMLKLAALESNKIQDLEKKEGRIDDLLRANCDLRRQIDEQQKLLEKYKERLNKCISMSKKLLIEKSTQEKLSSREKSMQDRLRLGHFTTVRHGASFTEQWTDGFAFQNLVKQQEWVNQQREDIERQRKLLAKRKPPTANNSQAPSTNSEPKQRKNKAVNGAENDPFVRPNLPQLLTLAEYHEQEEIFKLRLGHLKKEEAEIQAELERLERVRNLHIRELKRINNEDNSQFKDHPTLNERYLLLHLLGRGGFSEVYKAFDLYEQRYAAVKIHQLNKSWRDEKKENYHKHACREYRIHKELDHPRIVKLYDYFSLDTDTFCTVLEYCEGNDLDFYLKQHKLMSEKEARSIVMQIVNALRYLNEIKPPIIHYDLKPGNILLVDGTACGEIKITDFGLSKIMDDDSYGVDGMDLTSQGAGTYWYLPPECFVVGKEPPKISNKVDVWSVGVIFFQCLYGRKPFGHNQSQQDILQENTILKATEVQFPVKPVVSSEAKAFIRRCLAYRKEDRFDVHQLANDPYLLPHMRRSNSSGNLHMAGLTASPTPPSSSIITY
Chain of Tyrosine-protein kinase ABL1 (Homo sapiens) (P00519 whole entry, the tested form may be a part): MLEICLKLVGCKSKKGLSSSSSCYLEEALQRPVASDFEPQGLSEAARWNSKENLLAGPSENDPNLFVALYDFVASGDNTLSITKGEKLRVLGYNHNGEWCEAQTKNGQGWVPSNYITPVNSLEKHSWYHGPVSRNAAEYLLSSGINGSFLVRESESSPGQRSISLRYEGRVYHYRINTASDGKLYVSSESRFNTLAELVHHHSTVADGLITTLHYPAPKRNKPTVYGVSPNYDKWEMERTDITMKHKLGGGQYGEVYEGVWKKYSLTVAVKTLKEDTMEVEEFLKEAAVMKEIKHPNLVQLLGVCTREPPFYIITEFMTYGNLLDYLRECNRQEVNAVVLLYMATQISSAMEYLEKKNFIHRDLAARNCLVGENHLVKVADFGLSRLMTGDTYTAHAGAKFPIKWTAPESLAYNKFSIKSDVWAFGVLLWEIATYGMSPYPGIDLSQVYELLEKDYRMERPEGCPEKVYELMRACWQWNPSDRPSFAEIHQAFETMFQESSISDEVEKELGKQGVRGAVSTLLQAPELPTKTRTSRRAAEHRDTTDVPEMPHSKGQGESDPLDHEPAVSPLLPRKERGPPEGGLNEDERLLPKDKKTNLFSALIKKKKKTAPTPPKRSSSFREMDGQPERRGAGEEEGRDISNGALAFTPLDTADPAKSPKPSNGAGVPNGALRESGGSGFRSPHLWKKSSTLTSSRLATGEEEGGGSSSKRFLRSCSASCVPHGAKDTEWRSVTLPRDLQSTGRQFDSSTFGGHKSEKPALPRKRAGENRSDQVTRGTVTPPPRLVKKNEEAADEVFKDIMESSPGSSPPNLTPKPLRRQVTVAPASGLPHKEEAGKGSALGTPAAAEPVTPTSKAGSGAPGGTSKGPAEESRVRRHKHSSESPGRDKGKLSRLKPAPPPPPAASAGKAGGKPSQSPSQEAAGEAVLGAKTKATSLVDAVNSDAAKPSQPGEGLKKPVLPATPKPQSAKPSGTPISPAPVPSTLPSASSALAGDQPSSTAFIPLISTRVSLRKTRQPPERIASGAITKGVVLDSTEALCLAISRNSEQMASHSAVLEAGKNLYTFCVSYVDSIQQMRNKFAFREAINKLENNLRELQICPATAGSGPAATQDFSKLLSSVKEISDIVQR

Turning to `CCCCc1cc(-c2c[nH]c3ncc(-c4cnn(C5CCNCC5)c4)cc23)nc(N)n1`, the Ratio IC50 in series [1] was 30; in [2] it was 65.
In turn, `CCCCc1cc(-c2c[nH]c3ncccc23)nc(N)n1` registered a solubility in series [3] of more than 1000 µg/mL.
As for `CCc1cc(-c2c[nH]c3ncc(-c4cnn(C5CCNCC5)c4)cc23)nc(N)n1`, the inhibition in [4] is 77%; in series [5], 80%.
For the molecule `Nc1nccc(-c2c[nH]c3ncccc23)n1` [MERIOLIN 1], the Activity in series [6] was -25%; in series [7], -13%; in [8], -4%; in [9], -14%; in series [10], -98%; in [11] it was -69%. For the same molecule, the Activity in [12] was -3%; in series [13] it was -30%; in series [14], -18%; in series [15], 1%; in series [16], -36%; in series [17] it was 35%. Further, the Activity in [18] was -34%; in [19], -83%; in series [20], -82%; in series [21] it was -4%; in series [22], -23%; in [23] it was -75%. The Activity in series [24] was -3%; in series [25], -1%.

For orientation: solubility means how much of the substance goes into solution per volume. As a reminder, the inhibition is the change of the read-out against control, counted positive when it falls.
